# T1: S. pyogenes GapN (Streptococcus pyogenes, UniProt Q99Z67)
# T1 sequence (Q99Z67 1-475): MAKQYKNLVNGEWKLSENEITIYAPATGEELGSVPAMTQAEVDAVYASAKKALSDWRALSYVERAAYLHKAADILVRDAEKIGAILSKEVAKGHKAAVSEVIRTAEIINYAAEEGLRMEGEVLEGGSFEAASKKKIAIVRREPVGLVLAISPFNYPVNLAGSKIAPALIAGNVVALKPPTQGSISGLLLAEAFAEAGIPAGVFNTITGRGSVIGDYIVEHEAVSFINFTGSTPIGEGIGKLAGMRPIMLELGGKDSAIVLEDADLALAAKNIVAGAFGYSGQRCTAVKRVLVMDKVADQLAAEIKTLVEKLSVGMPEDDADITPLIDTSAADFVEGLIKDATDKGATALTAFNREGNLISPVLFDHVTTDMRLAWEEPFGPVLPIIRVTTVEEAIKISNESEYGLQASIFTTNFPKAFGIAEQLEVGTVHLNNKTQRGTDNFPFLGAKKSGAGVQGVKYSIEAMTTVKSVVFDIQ
# B1: S. pyogenes GapN (Streptococcus pyogenes serotype M1) (protein)
# chain: T1 sequence (Q99Z67 1-475)
# Assays:
# [1] = system: S. pyogenes GapN; conditions: ref Iddar et al., 2003; cited from earlier work
# From the text: The non-phosphorylating glyceraldehyde-3-phosphate dehydrogenase GapN has been predicted to be an essential enzyme in S. pyogenes M49 based on gene essentiality analyses via transposon mutant libraries ([Le Breton et al., 2015]).
# [2] = system: S. mutans GapN; conditions: ref Crow and Wittenberger, 1979; cited from earlier work
# From the text: E4P and phosphohydroxypyruvate were also described to inhibit GapN extracted from pea shoots, maize leaf and the green algae Chlamydomonas reinhardtii ([Kelly and Gibbs, 1973]; [Iglesias et al., 1987]). E4P and S7P are produced in the non-oxidative part of the PPP ([Stincone et al., 2015]), which is present in S. pyogenes. Thus, they could play a role in the in vivo regulation of the enzyme. […] ATP is generated during glycolysis, which provides most of the energy in S. pyogenes.
# [3] = target: T1, S. pyogenes GapN; assay: Activity of purified GapN (NADP+ reduction, absorption at 340 nm); assay type: biochemical, S. pyogenes M49 strain 591
# Method: (§1) Fractions containing pure protein were pooled and dialyzed overnight in PBS or 0.1 M citric acid (pH 6.0) to prepare them for enzymatic assays.
# (§2) For the measurement of activity of purified GapN, the protein concentration was adjusted to 70 μg/ml. The specific GapN activity was measured as described in [Iddar et al. (2003)] with modification of the protocol. […] The reaction was started by adding DL-G3P. […] As controls, the assay was carried out without addition of protein sample and without addition of G3P, respectively. GapN activity was calculated with the Lambert-Beer equation and expressed in units per milligram of total protein (U/mg), where one unit is defined as the formation of 1 μmol NADPH per minute. […] Potential activating or inhibiting effects on GapN activity were tested by adding 25 mM NaCl, 25 mM KCl, 25 mM NH4Cl, 10 mM D-glucose, 10 mM D-fructose, 10 mM sodium pyruvate, 10 mM ATP, 2 mM erythrose 4-phosphate (E4P), 2 mM sedoheptulose 7-phosphate (S7P), 0.4 mM NADH or 0.4 mM NADPH to the assay mixture.
# [4] = target: non-phosphorylating glyceraldehyde-3-phosphate dehydrogenase GapN of S. pyogenes M49 strain 591 (wild type) (S. pyogenes M49 strain 591); assay: SEC-MALS; HiLoad 16/600 Superdex 200 pg, room temperature, 1 x PBS pH 7.4, 0.5 ml/min; oligomeric state in solution
# [5] = substrate: O=CC(O)COP(=O)(O)O; assay: purified protein, by the assay type; assay type: biochemical, S. pyogenes M49 strain 591; conditions: other: Strep-tagged GapN; ± standard error printed (0.05 NADP; 0.19 DL-G3P)
# Method: as §1, §2
molecule,measurement,setting,value
"O=CC(O)COP(=O)(O)O (stereo not drawn) [G3P, glyceraldehyde 3-phosphate]",Km,[1],666 µM
"O=C[C@H](O)[C@H](O)COP(=O)(O)O [E4P, erythrose 4-phosphate]",Effect on S. mutans GapN activity,[2],inhibitory effects
same,Reduction of the activity of purified GapN,"[3]; 2 mM E4P added to standard assay (10 mM NADP+, 2 mM DL-G3P, pH 8.5), n = 4",90%
same,Specific GapN activity relative to standard assay mix,"[3]; in the presence of 2 mM E4P, mean ± SD, n = 4",10.8 ± 1.9%
NADP,Km,[1],385 µM
"O=C(CO)[C@@H](O)[C@H](O)[C@H](O)[C@H](O)COP(=O)(O)O [S7P, sedoheptulose 7-phosphate]",Effect on S. mutans GapN activity,[2],inhibitory effects
same,Effect on specific activity of purified GapN,"[3]; added to standard assay: 25 mM salts, 10 mM sugars/pyruvate, 2 mM S7P, 0.4 mM NADH or NADPH, n = 4, one-way ANOVA",does not inhibit
O=C(O)C(=O)COP(=O)(O)O [phosphohydroxypyruvate],Effect on S. mutans GapN activity,[2],inhibitory effects
Nc1ncnc2c1ncn2[C@@H]1O[C@H](COP(=O)(O)OP(=O)(O)OP(=O)(O)O)[C@@H](O)[C@H]1O [ATP],Effect on S. mutans GapN activity,[2],inhibited by ATP to some extent
same,Reduction of the activity of purified GapN,"[3]; 10 mM ATP added to standard assay (10 mM NADP+, 2 mM DL-G3P, pH 8.5), n = 4",50%
non-phosphorylating glyceraldehyde-3-phosphate dehydrogenase GapN of S. pyogenes M49 strain 591 (wild type) (enzyme),stoichiometry N,[4],4
B1,Km,[5],580 µM

# — article PMC8886048, “The Non-phosphorylating Glyceraldehyde-3-Phosphate Dehydrogenase GapN Is a Potential New Drug Target in Streptococcus pyogenes” (Frontiers in Microbiology, 2022)
